Assay type in all cases: cell-based
The test system of one test is chondrocytes. Kind of test: Levels of differentiation- and inflammation-related proteins (type II collagen, Sox-9, I-κB, COX-2), Western blot in chondrocytes. On the procedure:
First, the chondrocytes derived from joints were cultured in a DMEM medium according to a known method (E. H. Hong, et al., J. Biol. Chem. 285:1283-1295, 2010). Then, the cultured chondrocytes were inoculated into culture dishes at a density of 5×10^4 cells/cm^2, which were irradiated with 0 cGy, 0.5 cGy, 1.0 cGy, 1.5 cGy, and 2.0 cGy LDR using a ^137Cs-ray source (KIRMS, Korea), and the levels of type II collagen or Sox-9 protein, which are cartilage-specific differentiation marker proteins, and I-κB or COX-2 protein, which are inflammation-related proteins, were determined via Western blot analysis, and the transcriptional activity of Sox-9 protein and NF-κB, which is affected by I-κB, were determined by reporter gene assay (FIGS. 1a and b). […]
Finally, chondrocytes were transfected with 3 μg of GFP-labeled S83A α-catenin, FLAG-labeled S33A β-catenin, or wild type γ-catenin, reacted with or without treatment with 5 μM or 10 μM BAY 11-7082 for 24 hours, and the levels of I-κB and COX-2 proteins were determined via Western blot analysis (FIG. 5g). […]
On the technique in general: Immunoblotting shows a protein as a band on a membrane.

A further test deals with NF-κB. Kind of test: NF-κB transcriptional activity, reporter gene assay in chondrocytes. The following applies: for NF-κB activity reduced compared to IL-1β-treated chondrocytes: 1 hour before 10 ng/mL IL-1β; for transcriptional activity of NF-κB increased: 10 ng/mL IL-1β. On the procedure: (§1) First, the chondrocytes derived from joints were cultured in a DMEM medium according to a known method (E. H. Hong, et al., J. Biol. Chem. 285:1283-1295, 2010). Then, the cultured chondrocytes were inoculated into culture dishes at a density of 5×10^4 cells/cm^2, which were irradiated with 0 cGy, 0.5 cGy, 1.0 cGy, 1.5 cGy, and 2.0 cGy LDR using a ^137Cs-ray source (KIRMS, Korea), and the levels of type II collagen or Sox-9 protein, which are cartilage-specific differentiation marker proteins, and I-κB or COX-2 protein, which are inflammation-related proteins, were determined via Western blot analysis, and the transcriptional activity of Sox-9 protein and NF-κB, which is affected by I-κB, were determined by reporter gene assay (FIGS. 1a and b).
(§2) Chondrocytes were treated with either 10 ng/mL IL-1β alone, or in a combination of IL-1β treatment and 0.5 cGy or 1 cGy LDR, and the transcript levels of type I collagen, type II collagen, Sox-9, COX-2, and I-κB were measured via PCR using GAPDH as a control and a quantitative real-time PCR analysis, and the transcriptional activity of NF-κB was measured by reporter gene assay (FIGS. 2a, 2b, 2c, and 2d).
Meanwhile, chondrocytes were treated with LY294002, which is another chemical inhibitor of PI3K/Akt signaling, at a concentration of 10 μM or 20 μM, reacted for 1 hour, treated with […] reacted for 48 hours. Upon reaction, the levels of type II collagen, Sox-9, I-κB, and COX-2 proteins were determined via Western blot analysis, and the transcriptional activity of NF-κB was determined by reporter gene assay (FIG. 3c).
Finally, chondrocytes were transfected with 3 μg of the respective catenin plasmid for 24 hours, and untreated (−) or treated with 10 ng/mL, IL-1β (+) for 48 hours. Then, the levels of differentiation- and inflammation-related proteins were determined via Western blot analysis, and the transcriptional activity of NF-κB at 24 hours after IL-1β treatment was determined by reporter gene assay (FIG. 4d).
Additionally, the transcriptional activity of Sox-9 or NF-κB was determined by reporter gene assay, and the experimental results were indicated in terms of mean standard deviation (FIG. 5e). As a result, it was confirmed that LDR can increase the activity of Sox-9 in catenin-overexpressing chondrocytes while reducing the transcriptional activity of NF-κB. Specifically, as shown in FIG. 5e (left), 1 cGy LDR irradiation increased Sox-9 activity by about a 2.2-, 2.7-, and 2.4-fold compared to that in cells transfected with […], and, as shown in FIG. 5e (right), reduced NF-κB activity by about 74%, 78%, and 75%, respectively, thus confirming that LDR has the effect of inhibiting the induction of potential inflammation.

The subject of the next test is Akt. Kind of test: Expression and phosphorylation of Akt and GSK3α/β, Western blot in chondrocytes. The following applies: 10 ng/mL IL-1β.
The next test relates to Sox-9. The test can be described thus: Sox-9 transcriptional activity, reporter gene assay in chondrocytes. The following applies: 10 ng/mL IL-1β alone. The procedure:
as §1, §2
Additionally, the transcriptional activity of Sox-9 or NF-κB was determined by reporter gene assay, and the experimental results were indicated in terms of mean standard deviation (FIG. 5e). […]

The next test deals with COX-2. Kind of test: COX-2 transcript level by PCR and quantitative real-time PCR in chondrocytes. The following applies: 10 ng/mL IL-1β. The procedure:
as §2

Test [1] has as its system α-, β-, and γ-catenin proteins. Kind of test: Levels of catenin proteins, Western blot in chondrocytes. The following applies: 10 ng/mL IL-1β for a predetermined period of time. On the procedure:
First, chondrocytes were treated with 10 ng/mL IL-1β for a predetermined period of time, and the levels of the catenin proteins were determined via Western blot analysis (FIG. 4a).
First, it was examined whether LDR can directly regulate the expression of catenin proteins in chondrocytes. In this regard, chondrocytes, which were in a state untreated or treated with 10 ng/mL IL-1β, were irradiated at varied doses of LDR for 48 hours, and the levels of catenin proteins were determined via Western blot analysis (FIGS. 5a and 5h).
In order to examine whether the inhibitory effect of LDR on chondrocyte disorders is exclusively related to the responses to IL-1β, cells were treated with EGF, PMA, and RA, which are agents known to induce dedifferentiation of chondrocytes. Specifically, chondrocytes were treated or untreated with 10 ng/mL EGF(a), 10 nM PMA(b), and 1 μM RA(c) for 2 hours, treated or untreated with 0.5 cGy or 1 cGy LDR for 36 hours, and the levels of catenin proteins and differentiation/inflammation-related proteins were determined via Western blot analysis (FIGS. 6a, 6b, and 6c).

Where [2] appears, read: 5 μM or 10 μM, 1 hour before 10 ng/mL IL-1β, 48 hours.

With `CCCCCCCCCCCCCC(=O)O[C@@H]1[C@@H](C)[C@@]2(O)[C@@H](C=C(CO)C[C@]3(O)C(=O)C(C)=C[C@@H]23)[C@@H]2C(C)(C)[C@]12OC(C)=O` [PMA, phorbol 12-myristate 13-acetate], the “pathological changes induced by soluble factor (type II collagen, Sox-9, COX-2 proteins)” value with chondrocytes (10 ng/mL EGF, 10 nM PMA or 1 μM RA) is “inhibition of expression of type II collagen and Sox-9 proteins and induction of COX-2 protein expression”.
Regarding `Cc1ccc(S(=O)(=O)/C=C/C#N)cc1` [BAY 11-7082], the “degradation of I-κB and induction of COX-2 in cells transfected with α-, β- or γ-catenin” value with chondrocytes (5 μM or 10 μM for 24 hours, catenin-transfected chondrocytes) is given as “reversed”. Further, in the test on chondrocytes (setting [2]), the “COX-2 protein expression compared to IL-1β-treated chondrocytes” value is “reduced COX-2 expression” and the I-κB degradation entry is on record as “inhibited I-κB degradation in a dose-dependent manner”.
Turning to `O=c1cc(N2CCOCC2)oc2c(-c3ccccc3)cccc12` [LY294002], the figures for the “NF-κB activity reduced compared to IL-1β-treated chondrocytes” value in the test with NF-κB (10 μM) and in the test with NF-κB (20 μM) were “about 48%” and around 68%, respectively.
Take “IL-1β: cytokine used at 10 ng/mL to induce dedifferentiation, inflammation and destruction of chondrocytes”: the “phosphorylation of Akt induced by treatment” value in the test on Akt is “induced the phosphorylation of Akt”. For the same compound, the “NF-κB activity increase, IL-1β treatment alone” value with NF-κB (10 ng/mL IL-1β alone, 24 hours after treatment, catenin experiment (FIG. 4d)) is “about 8.5 fold”. Moreover, the “transcriptional activity of NF-κB increased” value with NF-κB (24 hours after treatment (FIG. 2c)) is recorded as “about 8.6 fold”; with NF-κB (48 hours after treatment (FIG. 2c)), around 6.7 fold. Further, the “level of type II collagen and Sox-9 proteins” value in the test on chondrocytes (10 ng/mL IL-1β alone) was “reduced the level of type II collagen and Sox-9 proteins”. Besides, the “transcriptional activity of Sox-9 reduced compared to control cells” value in the test with Sox-9 (24 hours after treatment) is reported as “about 32%”; with Sox-9 (48 hours after treatment), around 60%. In addition, the “level of COX-2 expression increased compared to control group” value in the test with COX-2 (24 hours after treatment) is given as “about 9.8 fold”; with COX-2 (48 hours after treatment), around 7.7 fold. Besides, in test [1], the “expression of α-, β-, and γ-catenin proteins” value was “expressed in a time-dependent manner”.

Values taken from patent US10301596B2, “Method of repairing damaged chondrocytes via low-dose irradiation” (KOREA INSTITUTE OF RADIOLOGICAL & MEDICAL SCIENCES, priority 2013, dated 2019).
